Source: patent US20260124222A1, “ISOTHIAZOLYLCARBOXAMIDE COMPOUNDS AND THEIR USE IN THERAPY” (HOTSPOT THERAPEUTICS, INC., priority 2022, published 2026)
pIC50: −log10 of the molar value.

These molecules were tested against T1, Avi-tagged FL MALT-1 (Homo sapiens, UniProt Q9UDY8) (assay: MALT-1 Fluorogenic Peptide Cleavage Assay (MALT1 inhibition assay)). Details: Ac-LRSR-AMC peptide substrate; 30 min pre-incubation, 90 min reaction at room temperature; fluorescence.
T1 construct: Avi-tagged FL MALT-1 (Pharmaron, stored at −70° C.); Avi-tag; purchased Pharmaron
T1 sequence (Q9UDY8 1-824): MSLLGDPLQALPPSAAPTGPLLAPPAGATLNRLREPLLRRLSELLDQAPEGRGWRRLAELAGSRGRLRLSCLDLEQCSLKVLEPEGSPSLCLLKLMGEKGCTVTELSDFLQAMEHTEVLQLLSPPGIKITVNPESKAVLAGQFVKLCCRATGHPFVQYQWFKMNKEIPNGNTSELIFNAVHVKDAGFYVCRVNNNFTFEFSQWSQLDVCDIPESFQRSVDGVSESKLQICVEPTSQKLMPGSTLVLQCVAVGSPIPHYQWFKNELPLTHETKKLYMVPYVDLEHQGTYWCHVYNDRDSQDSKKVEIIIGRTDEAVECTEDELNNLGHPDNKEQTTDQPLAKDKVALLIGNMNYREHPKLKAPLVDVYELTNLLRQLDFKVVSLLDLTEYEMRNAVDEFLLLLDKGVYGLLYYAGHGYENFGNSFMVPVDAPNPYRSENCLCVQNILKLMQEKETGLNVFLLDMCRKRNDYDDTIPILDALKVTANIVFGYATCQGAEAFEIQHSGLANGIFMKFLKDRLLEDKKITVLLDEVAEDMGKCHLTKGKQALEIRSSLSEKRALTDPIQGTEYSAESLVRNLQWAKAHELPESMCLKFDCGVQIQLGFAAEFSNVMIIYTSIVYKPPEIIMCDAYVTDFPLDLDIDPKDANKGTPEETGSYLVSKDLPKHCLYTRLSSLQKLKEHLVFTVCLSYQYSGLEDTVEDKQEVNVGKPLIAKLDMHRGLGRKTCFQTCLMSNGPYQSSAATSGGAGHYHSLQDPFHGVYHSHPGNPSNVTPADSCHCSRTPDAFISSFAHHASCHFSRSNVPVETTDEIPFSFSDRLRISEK
Assay type: biochemical
Procedure, shortened: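 Full-length Avi-tagged enzyme preincubated 30 min at room temperature with compound (2% DMSO final) in HEPES pH 6.89 buffer with sodium citrate, TCEP, EDTA and CHAPS. Ac-LRSR-AMC substrate added at Km or 10×Km (working stocks 50 or […] μM); fluorescence (ex 342/em 441 nm) after 90 min; IC50 from sigmoidal fit.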

| SMILES | pIC50 |
| --- | --- |
| COc1ccc2c(-c3nsc(C(=O)Nc4cnc(-n5nccn5)c(Cl)c4)c3C(F)(F)F)cccc2n1 [I-105] | ≥ 6.40 |
| O=C(Nc1ccnc(C(F)(F)F)c1)c1snc(-c2cncc(F)c2)c1C1CC1 [I-146, 4-cyclopropyl-3-(5-fluoropyridin-3-yl)-N-[2-(trifluoromethyl)pyridine-4-yl]-1,2-thiazole-5-carboxamide] | ≥ 6.40 |
| N#Cc1cc(NC(=O)c2snc(-c3ncccc3Cl)c2C(F)(F)F)cnc1-n1nccn1 [I-20, 3-(3-CHLOROPYRIDIN-2-YL)-N-(5-CYANO-6-(2H-1,2,3-TRIAZOL-2-YL)PYRIDIN-3-YL)-4-(TRIFLUOROMETHYL)ISOTHIAZOLE-5-CARBOXAMIDE] | ≥ 6.40 |
| Cc1c(-c2ccccc2)nsc1C(=O)Nc1cnc(-n2nccn2)c(Cl)c1 [I-3, N-(5-CHLORO-6-(2H-1,2,3-TRIAZOL-2-YL)PYRIDIN-3-YL)-4-METHYL-3-PHENYLISOTHIAZOLE-5-CARBOXAMIDE] | ≥ 6.40 |
| N#Cc1cc(NC(=O)c2snc(-c3cccc4c(=O)[nH]ccc34)c2C2CC2)cnc1-n1nccn1 [I-188, N-(5-cyano-6-(2H-1,2,3-triazol-2-yl)pyridin-3-yl)-4-cyclopropyl-3-(1-oxo-1,2-dihydroisoquinolin-5-yl)isothiazole-5-carboxamide] | ≥ 6.40 |
| Cn1cc(-c2nsc(C(=O)Nc3ccnc(C(F)(F)F)c3)c2C2CC2)cn1 [I-181, 4-cyclopropyl-3-(1-methyl-1H-pyrazol-4-yl)-N-(2-(trifluoromethyl)pyridin-4-yl)isothiazole-5-carboxamide] | 5.60 to 6.00 |
| COc1c(-c2ccccc2)nsc1C(=O)Nc1cnc(-n2nccn2)c(Cl)c1 [I-39, N-(5-CHLORO-6-(2H-1,2,3-TRIAZOL-2-YL) PYRIDIN-3-YL)-4-METHOXY-3-PHENYLISOTHIAZOLE-5-CARBOXAMIDE] | ≥ 6.40 |
| O=C(Nc1ccnc(C(F)(F)F)c1)c1snc(-c2ccccc2)c1C1CC1 [I-26, 3-PHENYL-4-CYCLOPROPYL-N-(2-(TRIFLUOROMETHYL)PYRIDIN-4-YL)ISOTHIAZOLE-5-CARBOXAMIDE] | ≥ 6.40 |
| Cc1cncc(NC(=O)c2snc(-c3ccccc3)c2C2CC2)c1 [I-45, 4-CYCLOPROPYL-N-(5-METHYLPYRIDIN-3-YL)-3-PHENYLISOTHIAZOLE-5-CARBOXAMIDE] | 5.60 to 6.00 |
| O=C(Nc1cnc(-n2nccn2)c(Cl)c1)c1cc(-c2ccccc2)ns1 [I-2, N-(5-CHLORO-6-(2H-1,2,3-TRIAZOL-2-YL)PYRIDIN-3-YL)-3-PHENYLISOTHIAZOLE-5-CARBOXAMIDE] | 5.60 to 6.00 |
| N#Cc1cc(NC(=O)c2snc(-c3cccn4nccc34)c2C2CC2)cnc1-n1nccn1 [I-114] | ≥ 6.40 |
| O=C(Nc1cnc(-n2nccn2)c(Cl)c1)c1nsc(-c2ccccc2)c1C(F)(F)F [I-57, N-(5-CHLORO-6-(2H-1,2,3-TRIAZOL-2-YL) PYRIDIN-3-YL)-5-PHENYL-4-(TRIFLUOROMETHYL)ISOTHIAZOLE-3-CARBOXAMIDE] | ≥ 6.40 |
| CN1CC(c2nsc(C(=O)Nc3cnc(-n4nccn4)c(C#N)c3)c2C(F)(F)F)C1 [I-130, N-[5-cyano-6-(1,2,3-triazol-2-yl)pyridin-3-yl]-3-(1-methylazetidin-3-yl)-4-(trifluoromethyl)-1,2-thiazole-5-carboxamide] | < 5.60 |
| N#Cc1cc(NC(=O)c2snc(-c3ccccc3)c2C2(O)COC2)cnc1-n1nccn1 [I-61] | < 5.60 |
| CC(C)c1c(-c2ccccc2)nsc1C(=O)Nc1cnc(-n2nccn2)c(Cl)c1 [I-5, N-(5-CHLORO-6-(2H-1,2,3-TRIAZOL-2-YL) PYRIDIN-3-YL)-4-ISOPROPYL-3-PHENYLISOTHIAZOLE-5-CARBOXAMIDE] | ≥ 6.40 |
| CN(C)C(=O)c1ccc(NC(=O)c2snc(-c3ccccc3)c2C2CC2)cc1Cl [I-21, N-(3-CHLORO-4-(DIMETHYLCARBAMOYL) PHENYL)-4-CYCLOPROPYL-3-PHENYLISOTHIAZOLE-5-CARBOXAMIDE] | ≥ 6.40 |
| CC(=O)N1CCC(c2nsc(C(=O)Nc3cnc(-n4nccn4)c(C#N)c3)c2C2CC2)CC1 [I-121] | 5.60 to 6.00 |
| COc1ccncc1-c1nsc(C(=O)Nc2ccnc(C(F)(F)F)c2)c1C1CC1 [I-170, 4-cyclopropyl-3-(4-methoxypyridin-3-yl)-N-(2-(trifluoromethyl)pyridin-4-yl)isothiazole-5-carboxamide] | ≥ 6.40 |

| SMILES | pIC50 |
| --- | --- |
| N#Cc1cc(NC(=O)c2snc(-c3cccc4ncoc34)c2C2CC2)cnc1-n1nccn1 [I-109] | ≥ 6.40 |
| O=C(Nc1ccnc(C(F)(F)F)c1)c1snc(-c2c(Cl)cncc2Cl)c1C1CC1 [I-187, 4-cyclopropyl-3-(3,5-dichloropyridin-4-yl)-N-(2-(trifluoromethyl)pyridin-4-yl)isothiazole-5-carboxamide] | ≥ 6.40 |
| N#Cc1cc(NC(=O)c2snc(C3CCOC3)c2C2CC2)cnc1-n1nccn1 (centres unmarked) [I-110] | 6.00 to 6.40 |
| COc1cccc(-c2nsc(C(=O)Nc3ccnc(C(F)(F)F)c3)c2C2CC2)c1 [I-156, 4-cyclopropyl-3-(3-methoxyphenyl)-N-(2-(trifluoromethyl)pyridin-4-yl)isothiazole-5-carboxamide] | ≥ 6.40 |
| CN(CCO)C(=O)c1ccc(NC(=O)c2snc(-c3ccccc3)c2C2CC2)cc1Cl [I-24, N-(3-CHLORO-4-((2-HYDROXYETHYL) (METHYL)CARBAMOYL)PHENYL)-4-CYCLOPROPYL-3-PHENYLISOTHIAZOLE-5-CARBOXAMIDE] | ≥ 6.40 |
| O=C(Nc1ccnc(C(F)(F)F)c1)c1snc(-c2ccc(C(F)(F)F)cc2)c1C1CC1 [I-137, 4-cyclopropyl-3-[4-(trifluoromethyl)phenyl]-N-[2-(trifluoromethyl)pyridin-4-yl]-1,2-thiazole-5-carboxamide] | 6.00 to 6.40 |
| N#Cc1cc(NC(=O)c2snc(-c3cccc4nccn34)c2C2CC2)cnc1-n1nccn1 [I-131, N-(5-cyano-6-(2H-1,2,3-triazol-2-yl)pyridin-3-yl)-4-cyclopropyl-3-(imidazo[1,2-a]pyridin-5-yl)isothiazole-5-carboxamide] | ≥ 6.40 |
| Cc1cccc(-c2nsc(C(=O)Nc3ccnc(C(F)(F)F)c3)c2C2CC2)c1 [I-178, 4-cyclopropyl-3-(3-methylphenyl)-N-[2-(trifluoromethyl)pyridin-4-yl]-1,2-thiazole-5-carboxamide] | ≥ 6.40 |
| Cn1cc2c(-c3nsc(C(=O)Nc4cnc(-n5nccn5)c(C#N)c4)c3C3CC3)cccc2n1 [I-206, N-(5-cyano-6-(2H-1,2,3-triazol-2-yl)pyridin-3-yl)-4-cyclopropyl-3-(2-methyl-2H-indazol-4-yl)isothiazole-5-carboxamide] | ≥ 6.40 |
| CN1CCN(c2ncc(NC(=O)c3snc(-c4ccccc4)c3C3CC3)cc2C#N)CC1 [I-54, N-(5-CYANO-6-(4-METHYLPIPERAZIN-1-YL) PYRIDIN-3-YL)-4-CYCLOPROPYL-3-PHENYLISOTHIAZOLE-5-CARBOXAMIDE] | ≥ 6.40 |
| O=C(Nc1ccnc(C(F)(F)F)c1)c1snc(-c2cccc(C(F)(F)F)c2)c1C1CC1 [I-138, 4-cyclopropyl-3-(3-(trifluoromethyl)phenyl)-N-(2-(trifluoromethyl)pyridin-4-yl)isothiazole-5-carboxamide] | ≥ 6.40 |
| O=C(Nc1ccnc(C(F)(F)F)c1)c1snc(-c2cncnc2)c1C1CC1 [I-144, 4-cyclopropyl-3-(pyrimidin-5-yl)-N-[2-(trifluoromethyl)pyridin-4-yl]-1,2-thiazole-5-carboxamide] | ≥ 6.40 |
| O=C(Nc1ccnc(C(F)(F)F)c1)c1snc(-c2ccc3ncsc3c2)c1C1CC1 [I-153, 3-(1,3-benzothiazol-6-yl)-4-cyclopropyl-N-[2-(trifluoromethyl)pyridin-4-yl]-1,2-thiazole-5-carboxamide] | ≥ 6.40 |
| N#Cc1cncc(NC(=O)c2snc(-c3ccccc3)c2C2CC2)c1 [I-30, N-(5-CYANOPYRIDIN-3-YL)-4-CYCLOPROPYL-3-PHENYLISOTHIAZOLE-5-CARBOXAMIDE] | ≥ 6.40 |
| CNC(=O)c1ccc(NC(=O)c2snc(-c3ccccc3)c2C2CC2)cc1Cl [I-23, N-(3-CHLORO-4-(METHYLCARBAMOYL) PHENYL)-4-CYCLOPROPYL-3-PHENYLISOTHIAZOLE-5-CARBOXAMIDE] | ≥ 6.40 |
| CN(C)C(=O)c1ccc(NC(=O)c2snc(-c3ccccc3)c2C2CC2)cc1C(F)(F)F [I-55, 4-CYCLOPROPYL-N-(4-(DIMETHYL-CARBAMOYL)-3-(TRIFLUOROMETHYL) PHENYL)-3-PHENYLISOTHIAZOLE-5-CARBOXAMIDE] | ≥ 6.40 |
| O=C(Nc1cnc(-n2nccn2)c(C(F)(F)F)c1)c1snc(-c2ccccc2)c1C1CC1 [I-14, 4-CYCLOPROPYL-N-(5-(TRIFLUOROMETHYL)-6-(2H-1,2,3-TRIAZOL-2-YL)PYRIDIN-3-YL)-3-PHENYLISOTHIAZOLE-5-CARBOXAMIDE] | ≥ 6.40 |
